Test results as given in patent US20200093103A1, “BREEDING WATER FOR ANGUILLIFORMES AND METHOD FOR REARING ANGUILLIFORMES” (SHIN NIPPON BIOMEDICAL LABORATORIES, LTD., priority 2016, published 2020).

Test system: Anguilla japonica leptocephali
Assay: Induction of Anguilla japonica metamorphosis by T4 treatment in 23° C. breeding water
Format: in vivo
Parameters: key: L: During life, no characteristics of metamorphosis seen.; Stage 1: Starting phase of metamorphosis. The rostral end is rounded, and intestinal degeneration starts.; Stage 2: Peak phase of metamorphosis. Intestinal degeneration becomes pronounced.; Stage 3: Late phase of metamorphosis.; Stage 4: Pre-glass eel stage. Almost the eel form, but the body height still remains
Description: Stage 1: Starting phase of metamorphosis. The rostral end is rounded, and intestinal degeneration starts.
Stage 2: Peak phase of metamorphosis. Intestinal degeneration becomes pronounced. In the second half, the anus reaches to near the last vertical blood vessel (VBV last).
Stage 3: Late phase of metamorphosis. The preanal length (PAL) becomes equal to or shorter than the last vertical blood vessel length (VBV last Length) (PAL VBV last Length). The body height is apparently low.
Stage 4: Pre-glass eel stage. Almost the eel form, but the body height still remains. Melanophores on the body surface or endogenous melanophores are not yet seen.
Elver stage: Juvenile stage. Food intake can be identified.
A thyroid hormone (e.g., thyroxine (T4)) is adjusted to 50 to 100 mM in a 1- to 2-mL volume messflask. As a solvent, known solvents (water, alcohol) can be used. Ethanol is preferably used as the solvent.
For example, using ethanol as a solvent, T4 adjusted to 50 mM is diluted 500-fold, 5,000-fold, and 50,000-fold, respectively, and adjusted to […], 1 μM, and 100 nM. A feed can be prepared in this manner.
Artificial seawater is added to a breeding vessel, and 1/1000 of the […] T4 is added to prepare […] T4 breeding water.
Half of the breeding water is replaced every two days with breeding water of the same concentration. In the case where the concentration is changed, for example, in the case of changing from 10 nM to 2 nM, 80% to the breeding water is removed, and unadjusted artificial seawater is newly added to make 1 L.
Leptocephali visually considered to have reached a total length of 40 mm (or may be 30 mm to 50 mm, may be 35 mm to 45 mm, or may also be 35 mm or more, 40 mm or more, or 45 mm or more) are selected, anesthetized with 2-phenoxyethanol, and then photographed, and the total length of each larva is measured using an image analyzing device.
The larvae are placed in 10 nM T4 breeding water and then placed in an incubator set at 23° C., and breeding is started. In first one week, observation is performed every two days, and half of the 10 nM T4 breeding water is replaced each time. The average amount of thyroid hormone in the breeding water in stage 1 is 1 nM to 100 nM, for example, and may also be 3 nM to 30 nM, or 5 nM to 20 nM.
For larvae visually judged to have reached the second half of stage 2, the concentration of the breeding water is changed. The breeding water is diluted 5-fold or 10-fold and adjusted to 2 nM or 1 nM T4, and breeding is continued. The average amount of thyroid hormone in the breeding water in stage 2 may be, as compared with the breeding water of stage 1, diluted 2-fold to 20-fold, diluted 3 to 15-fold, or diluted 5 to 10-fold as described above. The average amount of thyroid hormone in the breeding water in stage 2 is 0.1 nM to 20 nM, for example, and may also be 0.5 nM to 10 nM, 1 nM to 5 nM, or 1 nM to 2 nM.
For larvae visually judged to have reached stage 3, the breeding water is quickly changed 0.2 nM T4 breeding water, which is a 5-fold dilution of 1 nM T4 breeding water, and further changed to 0.1 nM T4 breeding water on the following day. […] Also, in larvae whose anus position has not reached the last vertical hemal spine, when they are judged to be on the brink of stage 3, the concentration is changed as above. The average amount of thyroid hormone in the breeding water in stage 3 may be, as compared with the breeding water of stage 2, diluted 2-fold to 50-fold, diluted 3 to 15-fold, diluted 4 to 6-fold, or diluted 5-fold as described above. The average amount of thyroid hormone in the breeding water in stage 3 is 0.01 nM to 2 nM, for example, and may also be 0.05 nM to 1 nM, 0.1 nM to 0.5 nM, or 0.1 nM to 0.2 nM. […] That is, the concentration may be changed such that the thyroid hormone becomes undetectable in the breeding water in the course of stage 3.
In stage 3, breeding is continuously performed in the 0.1 nM T4 breeding water. […]

Measured: metamorphosis stage

N[C@@H](Cc1cc(I)c(Oc2cc(I)c(O)c(I)c2)c(I)c1)C(=O)O [T4, thyroxine]
L: individual Exp. 6-1, 129 days old, total length 40.6 mm at start, c3 onward = treatment days 1,3,5,7,9,10,11,12,13,14,15,16,17,18,19, T4 (nM) 10,10,10,10,2,1,0.2,0.1,0.1,0.1,0.1,0.1,0.1,0.1,0.1, treatment day 1
3: individual Exp. 5-6, 174 days old, total length 34.5 mm at start, c3 onward = treatment days 1,3,5,7,8,9,10,11,12,13,14,15,16,17,18,20,22, T4 (nM) 10,10,10,10,10,10,10,2,1,1,0.2,0.1,0.1,0.1,0.1,0.1,0.1, treatment day 14, T4 0.2 nM | individual Exp. 5-6, 174 days old, total length 34.5 mm at start, c3 onward = treatment days 1,3,5,7,8,9,10,11,12,13,14,15,16,17,18,20,22, T4 (nM) 10,10,10,10,10,10,10,2,1,1,0.2,0.1,0.1,0.1,0.1,0.1,0.1, treatment day 15, T4 0.1 nM | individual Exp. 5-6, 174 days old, total length 34.5 mm at start, c3 onward = treatment days 1,3,5,7,8,9,10,11,12,13,14,15,16,17,18,20,22, T4 (nM) 10,10,10,10,10,10,10,2,1,1,0.2,0.1,0.1,0.1,0.1,0.1,0.1, treatment day 16, T4 0.1 nM | individual Exp. 5-6, 174 days old, total length 34.5 mm at start, c3 onward = treatment days 1,3,5,7,8,9,10,11,12,13,14,15,16,17,18,20,22, T4 (nM) 10,10,10,10,10,10,10,2,1,1,0.2,0.1,0.1,0.1,0.1,0.1,0.1, treatment day 17, T4 0.1 nM | individual Exp. 5-6, 174 days old, total length 34.5 mm at start, c3 onward = treatment days 1,3,5,7,8,9,10,11,12,13,14,15,16,17,18,20,22, T4 (nM) 10,10,10,10,10,10,10,2,1,1,0.2,0.1,0.1,0.1,0.1,0.1,0.1, treatment day 18, T4 0.1 nM | individual Exp. 5-6, 174 days old, total length 34.5 mm at start, c3 onward = treatment days 1,3,5,7,8,9,10,11,12,13,14,15,16,17,18,20,22, T4 (nM) 10,10,10,10,10,10,10,2,1,1,0.2,0.1,0.1,0.1,0.1,0.1,0.1, treatment day 20, T4 0.1 nM | individual Exp. 6-1, 129 days old, total length 40.6 mm at start, c3 onward = treatment days 1,3,5,7,9,10,11,12,13,14,15,16,17,18,19, T4 (nM) 10,10,10,10,2,1,0.2,0.1,0.1,0.1,0.1,0.1,0.1,0.1,0.1, treatment day 11 | individual Exp. 6-1, 129 days old, total length 40.6 mm at start, c3 onward = treatment days 1,3,5,7,9,10,11,12,13,14,15,16,17,18,19, T4 (nM) 10,10,10,10,2,1,0.2,0.1,0.1,0.1,0.1,0.1,0.1,0.1,0.1, treatment day 12 | individual Exp. 6-1, 129 days old, total length 40.6 mm at start, c3 onward = treatment days 1,3,5,7,9,10,11,12,13,14,15,16,17,18,19, T4 (nM) 10,10,10,10,2,1,0.2,0.1,0.1,0.1,0.1,0.1,0.1,0.1,0.1, treatment day 13 | individual Exp. 6-1, 129 days old, total length 40.6 mm at start, c3 onward = treatment days 1,3,5,7,9,10,11,12,13,14,15,16,17,18,19, T4 (nM) 10,10,10,10,2,1,0.2,0.1,0.1,0.1,0.1,0.1,0.1,0.1,0.1, treatment day 14 | individual Exp. 6-1, 129 days old, total length 40.6 mm at start, c3 onward = treatment days 1,3,5,7,9,10,11,12,13,14,15,16,17,18,19, T4 (nM) 10,10,10,10,2,1,0.2,0.1,0.1,0.1,0.1,0.1,0.1,0.1,0.1, treatment day 15 | individual Exp. 6-1, 129 days old, total length 40.6 mm at start, c3 onward = treatment days 1,3,5,7,9,10,11,12,13,14,15,16,17,18,19, T4 (nM) 10,10,10,10,2,1,0.2,0.1,0.1,0.1,0.1,0.1,0.1,0.1,0.1, treatment day 16 | individual Exp. 6-1, 129 days old, total length 40.6 mm at start, c3 onward = treatment days 1,3,5,7,9,10,11,12,13,14,15,16,17,18,19, T4 (nM) 10,10,10,10,2,1,0.2,0.1,0.1,0.1,0.1,0.1,0.1,0.1,0.1, treatment day 17 | individual Exp. 6-1, 129 days old, total length 40.6 mm at start, c3 onward = treatment days 1,3,5,7,9,10,11,12,13,14,15,16,17,18,19, T4 (nM) 10,10,10,10,2,1,0.2,0.1,0.1,0.1,0.1,0.1,0.1,0.1,0.1, treatment day 18
1: individual Exp. 6-1, 129 days old, total length 40.6 mm at start, c3 onward = treatment days 1,3,5,7,9,10,11,12,13,14,15,16,17,18,19, T4 (nM) 10,10,10,10,2,1,0.2,0.1,0.1,0.1,0.1,0.1,0.1,0.1,0.1, treatment day 3 | individual Exp. 6-1, 129 days old, total length 40.6 mm at start, c3 onward = treatment days 1,3,5,7,9,10,11,12,13,14,15,16,17,18,19, T4 (nM) 10,10,10,10,2,1,0.2,0.1,0.1,0.1,0.1,0.1,0.1,0.1,0.1, treatment day 5
2: individual Exp. 5-6, 174 days old, total length 34.5 mm at start, c3 onward = treatment days 1,3,5,7,8,9,10,11,12,13,14,15,16,17,18,20,22, T4 (nM) 10,10,10,10,10,10,10,2,1,1,0.2,0.1,0.1,0.1,0.1,0.1,0.1, treatment day 11, T4 2 nM | individual Exp. 5-6, 174 days old, total length 34.5 mm at start, c3 onward = treatment days 1,3,5,7,8,9,10,11,12,13,14,15,16,17,18,20,22, T4 (nM) 10,10,10,10,10,10,10,2,1,1,0.2,0.1,0.1,0.1,0.1,0.1,0.1, treatment day 12, T4 1 nM | individual Exp. 5-6, 174 days old, total length 34.5 mm at start, c3 onward = treatment days 1,3,5,7,8,9,10,11,12,13,14,15,16,17,18,20,22, T4 (nM) 10,10,10,10,10,10,10,2,1,1,0.2,0.1,0.1,0.1,0.1,0.1,0.1, treatment day 13, T4 1 nM | individual Exp. 6-1, 129 days old, total length 40.6 mm at start, c3 onward = treatment days 1,3,5,7,9,10,11,12,13,14,15,16,17,18,19, T4 (nM) 10,10,10,10,2,1,0.2,0.1,0.1,0.1,0.1,0.1,0.1,0.1,0.1, treatment day 7 | individual Exp. 6-1, 129 days old, total length 40.6 mm at start, c3 onward = treatment days 1,3,5,7,9,10,11,12,13,14,15,16,17,18,19, T4 (nM) 10,10,10,10,2,1,0.2,0.1,0.1,0.1,0.1,0.1,0.1,0.1,0.1, treatment day 9 | individual Exp. 6-1, 129 days old, total length 40.6 mm at start, c3 onward = treatment days 1,3,5,7,9,10,11,12,13,14,15,16,17,18,19, T4 (nM) 10,10,10,10,2,1,0.2,0.1,0.1,0.1,0.1,0.1,0.1,0.1,0.1, treatment day 10
4: individual Exp. 5-6, 174 days old, total length 34.5 mm at start, c3 onward = treatment days 1,3,5,7,8,9,10,11,12,13,14,15,16,17,18,20,22, T4 (nM) 10,10,10,10,10,10,10,2,1,1,0.2,0.1,0.1,0.1,0.1,0.1,0.1, treatment day 22, T4 0.1 nM | individual Exp. 6-1, 129 days old, total length 40.6 mm at start, c3 onward = treatment days 1,3,5,7,9,10,11,12,13,14,15,16,17,18,19, T4 (nM) 10,10,10,10,2,1,0.2,0.1,0.1,0.1,0.1,0.1,0.1,0.1,0.1, treatment day 19
